# Reference: patent US10954216B2, “BMP-signal-inhibiting compound” (RIKEN, priority 2016, dated 2021)
# Where a name gives a salt, the structure may show the parent alone.
# System: BMP signal in MDA-231-D-BREFluc/Rluc cells
# Assay: BMP signal inhibitory effect (AlphaScreen SureFire SMAD1 p-Ser463/465, BMP-6 stimulation)
# Format: cell-based
# Settings: BMP-6 stimulated MDA-231-D-BREFluc/Rluc cells, phospho-SMAD1 AlphaScreen; read-out: IC50
# Experimental: BMP Signal Inhibitory Effect
# A BMP signal inhibitory activity of a compound of the present invention was evaluated according to the following method.
# MDA-231-D-BREFluc/Rluc cells prepared according to the method described in Y. Katsuno et al., Oncogene, 27, 6322 (2008) were incubated at 37° C. for 2 hours together with test compounds, and BMP-6 (commercially available from R&D System, 507-BM-020) was then added thereto, and the mixture was additionally incubated at 37° C. for 30 minutes. A Lysis Buffer and Acceptor mix of AlphaScreen SureFire SMAD1 (p-Ser463/465) assay kit (commercially available from Perkin Elmer, TGRSM1S10K) were sequentially added thereto, the mixture was incubated at room temperature for 2 hours, and AlphaScreen Protein A kit (commercially available from Perkin Elmer, 6760617) was then added thereto, and standard AlphaScreen settings of Alpha Technology—compatible plate reader (commercially available from Perkin Elmer, EnSpire) was used for measurement.
row,SMILES,IC50 [nM]
1,CCn1cc(-c2ccnc(Nc3ccc(N4CCC(N5CCN(C)CC5)CC4)cc3)n2)c(-c2cccnc2)n1 [Example 20],11.8
2,"CCn1cc(-c2ccnc(Nc3ccc(N4CCC5(CC4)CN(C(C)=O)C5)cc3)n2)c(-c2cccnc2)n1 [Example 21, 1-(7-(4-((4-(1-ethyl-3-(pyridin-3-yl)-1H-pyrazol-4-yl)pyrimidin-2-yl)amino)phenyl)-2,7-diazaspiro[3.5]nonan-2-yl)ethan-1-one]",39
3,"CCn1cc(-c2ccnc(Nc3ccc(N4CCOCC4)cc3)n2)c(-c2cccnc2)n1 [Example 22, 4-(1-ethyl-3-(pyridin-3-yl)-1H-pyrazol-4-yl)-N-(4-morpholinophenyl)pyrimidin-2-amine]",19
4,"CCn1cc(-c2ccnc(Nc3cccc(OCCN(C)C)c3)n2)c(-c2cccnc2)n1 [Example 24, N-(3-(2-(dimethylamino)ethoxy)phenyl)-4-(1-ethyl-3-(pyridin-3-yl)-1H-pyrazol-4-yl)pyrimidin-2-amine]",5.3
5,"CCn1cc(-c2ccnc(Nc3ccc(-n4cnc(C)n4)cc3)n2)c(-c2cccnc2)n1 [Example 26, 4-(1-ethyl-3-(pyridin-3-yl)-1H-pyrazol-4-yl)-N-(4-(3-methyl-1H-1,2,4-triazol-1-yl)phenyl)pyrimidin-2-amine]",18.5
6,"CCn1cc(-c2ccnc(Nc3ccc(-c4cnn(CCOC)c4)cc3)n2)c(-c2cccnc2)n1 [Example 28, 4-(1-Ethyl-3-(pyridin-3-yl)-1H-pyrazol-4-yl)-N-(4-(1-(2-methoxyethyl)-1H-pyrazol-4-yl)phenyl)pyrimidin-2-amine]",24.6
7,"CCn1cc(-c2ccnc(Nc3ccc(-c4cn[nH]c4)cc3)n2)c(-c2cccnc2)n1 [Example 30, N-(4-(1H-pyrazol-4-yl)phenyl)-4-(1-ethyl-3-(pyridin-3-yl)-1H-pyrazol-4-yl)pyrimidin-2-amine]",32.9
8,"CCn1cc(-c2ccnc(Nc3ccc(N4CCN(CC(=O)N5CCCCC5)CC4)cc3)n2)c(-c2cccnc2)n1 [Example 31, 2-(4-(4-((4-(1-Ethyl-3-(pyridin-3-yl)-1H-pyrazol-4-yl)pyrimidin-2-yl)amino)phenyl)piperazin-1-yl)-1-(piperidin-1-yl)ethan-1-one]",19.7
9,"CCn1cc(-c2ccnc(Nc3ccc(N4CCN(C5CC5)CC4)cc3)n2)c(-c2cccnc2)n1 [Example 32, N-(4-(4-cyclopropylpiperazin-1-yl)phenyl)-4-(1-ethyl-3-(pyridin-3-yl)-1H-pyrazol-4-yl)pyrimidin-2-amine]",21.3
10,"CCn1cc(-c2ccnc(Nc3cccc(N4CCN(C)CC4)c3)n2)c(-c2cccnc2)n1 [Example 34, 4-(1-ethyl-3-(pyridin-3-yl)-1H-pyrazol-4-yl)-N-(3-(4-methylpiperazin-1-yl)phenyl)pyrimidin-2-amine]",17.3
11,"COCCn1cc(-c2ccnc(Nc3ccc(N4CCN(C)CC4)cc3)n2)c(-c2cccnc2)n1 [Example 35, 4-(1-(2-methoxyethyl)-3-(pyridin-3-yl)-1H-pyrazol-4-yl)-N-(4-(4-methylpiperazin-1-yl)phenyl)pyrimidin-2-amine]",22.5
12,"COCCn1cc(-c2ccnc(Nc3ccc(N4CCN(CC5CC5)CC4)cc3)n2)c(-c2cccnc2)n1 [Example 36, N-(4-(4-(Cyclopropylmethyl)piperazin-1-yl)phenyl)-4-(1-(2-methoxyethyl)-3-(pyridin-3-yl)-1H-pyrazole-4-yl)pyrimidin-2-amine]",15.9
13,"CCn1cc(-c2ccnc(Nc3ccc(-n4nc(C)nc4C)cc3)n2)c(-c2cccnc2)n1 [Example 39, N-(4-(3,5-dimethyl-1H-1,2,4-triazol-1-yl)phenyl)-4-(1-ethyl-3-(pyridin-3-yl)-1H-pyrazol-4-yl)pyrimidin-2-amine]",11.2
14,"CCn1cc(-c2ccnc(Nc3cccc(CN(C)C)c3)n2)c(-c2cccnc2)n1 [Example 40, N-(3-((dimethylamino)methyl)phenyl)-4-(1-ethyl-3-(pyridin-3-yl)-1H-pyrazol-4-yl)pyrimidin-2-amine]",5
15,"CCn1cc(-c2ccnc(Nc3ccc(Cn4cncn4)cc3)n2)c(-c2cccnc2)n1 [Example 42, N-(4-((1H-1,2,4-Triazol-1-yl)methyl)phenyl)-4-(1-ethyl-3-(pyridin-3-yl)-1H-pyrazol-4-yl)pyrimidin-2-amine]",36.9
16,"CCn1cc(-c2ccnc(Nc3ccc(CCN4CCN(CCOC)CC4)cc3)n2)c(-c2cccnc2)n1 [Example 43, 4-(1-ethyl-3-(pyridin-3-yl)-1H-pyrazol-4-yl)-N-(4-(2-(4-(2-methoxyethyl)piperazin-1-yl)ethyl)phenyl)pyrimidin-2-amine]",5.2

row,SMILES,IC50 [nM]
1,"CCn1cc(-c2ccnc(Nc3ccc(-n4ccnc4)cc3)n2)c(-c2cccnc2)n1 [Example 44, N-(4-(1H-Imidazol-1-yl)phenyl)-4-(1-ethyl-3-(pyridin-3-yl)-1H-pyrazol-4-yl)pyrimidin-2-amine]",14.5
2,"CCn1cc(-c2ccnc(Nc3ccc(C4CCN(C)CC4)c(F)c3)n2)c(-c2cccnc2)n1 [Example 45, 4-(1-ethyl-3-(pyridin-3-yl)-1H-pyrazol-4-yl)-N-(3-fluoro-4-(1-methylpiperidin-4-yl)phenyl)pyrimidin-2-amine]",12.1
3,"CCn1cc(-c2ccnc(Nc3ccc(N4CCN(C)CC4)c(OC)c3)n2)c(-c2cccnc2)n1 [Example 47, 4-(1-ethyl-3-(pyridin-3-yl)-1H-pyrazol-4-yl)-N-(3-methoxy-4-(4-methylpiperazin-1-yl)phenyl)pyrimidin-2-amine]",10.2
4,"CCn1cc(-c2ccnc(Nc3cnn(C4CN(CC(C)(C)O)C4)c3)n2)c(-c2cccnc2)n1 [Example 48, 1-(3-(4-((4-(1-Ethyl-3-(pyridin-3-yl)-1H-pyrazol-4-yl)pyrimidin-2-yl)amino)-1H-pyrazol-1-yl)azetidin-1-yl)-2-methylpropan-2-ol]",21.2
5,"CCn1cc(-c2ccnc(Nc3ccc(C4CCN(CCOC)C4)cc3)n2)c(-c2cccnc2)n1 (centres unmarked) [Example 50, 4-(1-ethyl-3-(pyridin-3-yl)-1H-pyrazol-4-yl)-N-(4-(1-(2-methoxyethyl)pyrrolidin-3-yl)phenyl)pyrimidin-2-amine]",6.3
6,"CCn1cc(-c2ccnc(Nc3ccc(N4CCN(CCOCC(F)F)CC4)cc3)n2)c(-c2cccnc2)n1 [Example 51, N-(4-(4-(2-(2,2-difluoroethoxy)ethyl)piperazin-1-yl)phenyl)-4-(1-ethyl-3-(pyridin-3-yl)-1H-pyrazol-4-yl)pyrimidin-2-amine]",18.3
7,"CCn1cc(-c2ccnc(Nc3ccc(N4CCN(CCOCC5CC5)CC4)cc3)n2)c(-c2cccnc2)n1 [Example 52, N-(4-(4-(2-(Cyclopropylmethoxy)ethyl)piperazin-1-yl)phenyl)-4-(1-ethyl-3-(pyridin-3-yl)-1H-pyrazol-4-yl)Pyrimidin-2-amine]",13.3
8,"CCn1cc(-c2ccnc(Nc3cnn(C4CCOCC4)c3)n2)c(-c2cccnc2)n1 [Example 53, 4-(1-ethyl-3-(pyridin-3-yl)-1H-pyrazol-4-yl)-N-(1-(tetrahydro-2H-pyran-4-yl)-1H-pyrazol-4-yl)pyrimidin-2-amine]",22
9,"CCn1cc(-c2ccnc(Nc3cnn(C4CCN(CC(C)(C)O)CC4)c3)n2)c(-c2cccnc2)n1 [Example 54, 1-(4-(4-((4-(1-Ethyl-3-(pyridin-3-yl)-1H-pyrazol-4-yl)pyrimidin-2-yl)amino)-1H-pyrazol-1-yl)piperidin-1-yl)-2-methylpropan-2-ol]",8.2
10,"CCn1cc(-c2ccnc(Nc3cnn(C4CCN(CCOC)CC4)c3)n2)c(-c2cccnc2)n1 [Example 55, 4-(1-ethyl-3-(pyridin-3-yl)-1H-pyrazol-4-yl)-N-(1-(1-(2-methoxyethyl)piperidin-4-yl)-1H-pyrazol-4-yl)pyrimidin-2-amine oxalate]",21.6
11,"CCn1cc(-c2ccnc(Nc3ccc(-c4nnc(C)s4)cc3)n2)c(-c2cccnc2)n1 [Example 56, 4-(1-Ethyl-3-(pyridin-3-yl)-1H-pyrazol-4-yl)-N-(4-(5-methyl-1,3,4-thiadiazol-2-yl)phenyl)pyrimidin-2-amine]",17.6
12,"COCCN1CCC(c2ccc(Nc3nccc(-c4cn(CCOC)nc4-c4cccnc4)n3)cc2)CC1 [Example 57, 4-(1-(2-methoxyethyl)-3-(pyridin-3-yl)-1H-pyrazol-4-yl)-N-(4-(1-(2-methoxyethyl)piperidin-4-yl)phenyl)pyrimidin-2-amine]",13
13,"CCn1cc(-c2ccnc(Nc3ccc(C4CCN(CCOC)CC4)cc3)n2)c(-c2cccnc2)n1 [Example 58, 4-(1-ethyl-3-(pyridin-3-yl)-1H-pyrazol-4-yl)-N-(4-(1-(2-methoxyethyl)piperidin-4-yl)phenyl)pyrimidin-2-amine]",4.4
14,"CCn1cc(-c2ccnc(Nc3ccc(C4CCN(C(=O)CO)CC4)cc3)n2)c(-c2cccnc2)n1 [Example 59, 1-(4-(4-((4-(1-ethyl-3-(pyridin-3-yl)-1H-pyrazol-4-yl)pyrimidin-2-yl)amino)phenyl)piperidin-1-yl)-2-hydroxyethan-1-one]",25.2
15,"COCCn1cc(-c2ccnc(Nc3ccc4c(c3)CN(C)C4)n2)c(-c2cccnc2)n1 [Example 60, N-(4-(1-(2-methoxyethyl)-3-(pyridin-3-yl)-1H-pyrazol-4-yl)pyrimidin-2-yl)-2-methylisoindolin-5-amine]",6.4
16,"CCn1cc(-c2ccnc(Nc3ccc4c(c3)CN(CCOC)C4)n2)c(-c2cccnc2)n1 [Example 61, N-(4-(1-ethyl-3-(pyridin-3-yl)-1H-pyrazol-4-yl)pyrimidin-2-yl)-2-(2-methoxyethyl)isoindolin-5-amine]",7
